In one assay the test system is Human keratinocytes. The experiment in a line: PGE2 release post-UVB irradiation, keratinocytes (ELISA). It is filed as cell-based. To be noted: for Change in PGE2 release post-UVB irradiation, keratinocytes: UVB 30 mJ/cm2, 24 hours. As to the method: (§1) Human keratinocytes and fibroblasts were cultured in an appropriate medium in the presence of various concentrations of chrysin for 24 hours. The cells were then transferred to a product-free medium and exposed to a pro-inflammatory dose of UVB radiation at a dosage of 35 mJ/cm2 for fibroblasts and 30 mJ/cm2 for keratinocytes. Following irradiation, the cells were then post-incubated either in medium alone or in medium containing various concentrations of chrysin vs. a positive control (acetylsalicylic acid) for 24 hours. PGE2 release into the culture medium after 24 hours was determined using an ELISA method.
In general terms: ELISA stands for enzyme-linked immunosorbent assay.

The subject of a further assay is UGT1A1 mRNA. The experiment in a line: Induction of UGT1A1 mRNA by chrysin, RT-PCR in hepG2 cells. To be noted: 3 days. It is filed as cell-based, Human. The method, then:
Human hepG2 cells were cultured in an appropriate medium (Williams medium) in the presence or absence of the inductor, chrysin, for 3 days At the end of that period, cell lysis was induced, mRNA extracted and RT-PCR conducted
Quantification of UGT1A1 mRNA: The study was conducted after 3 days of incubation in the presence of chrysin. The values, shown in Table 1, obtained were normalized on the GADPH internal standard and then expressed as percentages relative to the reference.

In the next assay the test system is fibroblasts. Briefly: PGE2 release post-UVB irradiation, fibroblasts (ELISA). It is filed as cell-based, Human. To be noted: for Change in PGE2 release post-UVB irradiation, fibroblasts: UVB 35 mJ/cm2, 24 hours. The method, then: as §1
The mark [1] stands for this setting: positive control, concentration not given.

The text below walks through data of US8530426B2, “Cosmetic or dermopharmaceutical composition comprising at least one UDP glucuronosyl transferase (UGT) enzymes inducer” (Sederma SAS, priority 2004, dated 2013).

Each structure is given as a SMILES string.

Turning to `O=c1cc(-c2ccccc2)oc2cc(O)cc(O)c12` [Chrysin, 5,7-dihydroxyflavone], the “Change in PGE2 release post-UVB irradiation, keratinocytes” value in the assay with Human keratinocytes (2 μM) is on record as −75%; in the assay with Human keratinocytes (3.9 μM), −84%; in the assay with Human keratinocytes (7.8 μM), −85%; with Human keratinocytes (11.8 μM), −86%. In addition, the “inhibition of keratinocytic PGE2” value with Human keratinocytes (maximum over the chrysin concentrations, without a dose effect) is “up to 85%”. The “UGT1A1 Induction” value was “×2.5” in the assay on UGT1A1 mRNA (chrysin 7.8 μM) and “×6” in the assay with UGT1A1 mRNA (chrysin 11.8 μM). In addition, the entries for the “UGT1A1 mRNA, normalized on GADPH, percentage relative to the reference” value with UGT1A1 mRNA (chrysin 7.8 μM) and in the assay with UGT1A1 mRNA (chrysin 11.8 μM) were 247% and 600%, respectively. The “increase in UGT1A1 mRNA (in words)” value in the assay on UGT1A1 mRNA (dose effect) is given as “very marked increase”. Also, the “Change in PGE2 release post-UVB irradiation, fibroblasts” value is recorded as −76% with fibroblasts (2 μM), −85% in the assay with fibroblasts (3.9 μM), −89% with fibroblasts (7.8 μM) and −92% in the assay with fibroblasts (11.8 μM).
As for `CC(=O)Oc1ccccc1C(=O)O` [acetylsalicylic acid, reference compound], in the assay on Human keratinocytes (setting [1]), the “Change in PGE2 release post-UVB irradiation, keratinocytes” value is listed as −92% and the “inhibition of PGE2, keratinocytes” value is recorded as “greater than 90%”. In the assay with fibroblasts (setting [1]), the “Change in PGE2 release post-UVB irradiation, fibroblasts” value is recorded as −95% and the “inhibition of PGE2, fibroblasts” value was “greater than 90%”.
